In US20260217701A1, “SELECTIVE BET INHIBITORS AND USES THEREOF” (Tay Therapeutics Limited, priority 2022, published 2026):
Several values for one entry are separate records, joined by “and”; a condition that tells them apart may be missing. Identical values can stand only once.

Test system: imiquimod-induced psoriasis
Assay: Imiquimod-induced psoriasis model
Assay type: in vivo, mice
Conditions: for PASI Scores / Number Licking / Number Licking + Scratching / Number Scratching / Distance Traveled / Number Rearings: individual animals; for Distance Traveled / Number Rearings: behavioral evaluation
Procedure, shortened: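 Psoriasis-like dermatitis induced in mice by daily dorsal imiquimod cream (Days 1–14); dosing with Compound A (5% DMSO/40% PEG-400/55% saline vehicle) began Day 8. Read-outs: summed 0–4 scores for erythema, induration and peeling daily to Day 15, plus terminal spleen ratio, behaviour and serum cytokines.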

[1] = IMI-psoriasis model, behavioral evaluation D15, 1 mg/kg
[2] = IMI-psoriasis model, behavioral evaluation D15, 3 mg/kg
[3] = IMI-psoriasis model, behavioral evaluation D15, 10 mg/kg

Cn1cc(-c2ccccc2)c(-c2cn(C)c(=O)c3[nH]c(-c4cnn(C(F)(F)F)c4)cc23)cc1=O [Compound A, 6-methyl-4-(1-methyl-2-oxo-5-phenyl-1,2-dihydropyridin-4-yl)-2-(1-(trifluoromethyl)-1H-pyrazol-4-yl)-1,6-dihydro-7H-pyrrolo[2,3-c]pyridin-7-one]
PASI Scores (IMI + Compound A 1 mg/kg, D12, 1 mg/kg): 6 and 4 (4×) and 5 (2×) and 3 | PASI Scores (IMI + Compound A 1 mg/kg, D13, 1 mg/kg): 3 (4×) and 2 (2×) and 4 and 5 | PASI Scores (IMI + Compound A 1 mg/kg, D14, 1 mg/kg): 1 (2×) and 2 (3×) and 3 (3×) | PASI Scores (IMI + Compound A 1 mg/kg, D15, 1 mg/kg): 1 (5×) and 2 (2×) and 0 | PASI Scores (IMI + Compound A 3 mg/kg, D8 (day treatment started), 3 mg/kg): 8 and 6 and 7 and 5 and 9 | PASI Scores (IMI + Compound A 3 mg/kg, D9, 3 mg/kg): 8 (3×) and 5 and 6 | PASI Scores (IMI + Compound A 3 mg/kg, D10, 3 mg/kg): 6 and 7 and 4 and 5 (2×) | PASI Scores (IMI + Compound A 3 mg/kg, D11, 3 mg/kg): 4 (2×) and 3 (2×) and 5 | PASI Scores (IMI + Compound A 3 mg/kg, D12, 3 mg/kg): 3 and 4 and 2 and 5 | PASI Scores (IMI + Compound A 3 mg/kg, D13, 3 mg/kg): 2 (3×) and 0 | PASI Scores (IMI + Compound A 3 mg/kg, D14, 3 mg/kg): 2 and 0 (2×) and 1 | PASI Scores (IMI + Compound A 3 mg/kg, D15, 3 mg/kg): 1 (2×) and 0 (2×) | Use Enrichment D1 (IMI-psoriasis model, D1, 1 mg/kg, per cage (two animals)): 4.0 | Use Enrichment D1 (IMI-psoriasis model, D1, 3 mg/kg, per cage (two animals)): 4.0 and 3.5 | Use Enrichment D1 (IMI-psoriasis model, D1, 10 mg/kg, per cage (two animals)): 4.0 | Use Enrichment D8 (IMI-psoriasis model, D8, 1 mg/kg, per cage (two animals)): 1.0 and 1.5 | Use Enrichment D10 (IMI-psoriasis model, D10, 1 mg/kg, per cage (two animals)): 2.5 and 3.5 and 2.0 | Use Enrichment D10 (IMI-psoriasis model, D10, 3 mg/kg, per cage (two animals)): 2.0 and 3.0 | Use Enrichment D10 (IMI-psoriasis model, D10, 10 mg/kg, per cage (two animals)): 3.0 and 4.0 | Use Enrichment D11 (IMI-psoriasis model, D11, 1 mg/kg, per cage (two animals)): 3.0 and 4.0 and 2.0 | Use Enrichment D11 (IMI-psoriasis model, D11, 3 mg/kg, per cage (two animals)): 3.0 and 4.0 | Use Enrichment D11 (IMI-psoriasis model, D11, 10 mg/kg, per cage (two animals)): 3.0 and 4.0 | Use Enrichment D12 (IMI-psoriasis model, D12, 1 mg/kg, per cage (two animals)): 2.0 and 2.5 and 4.0 | Use Enrichment D12 (IMI-psoriasis model, D12, 3 mg/kg, per cage (two animals)): 3.0 | Use Enrichment D12 (IMI-psoriasis model, D12, 10 mg/kg, per cage (two animals)): 2.0 and 4.0 and 3.0 | Use Enrichment D13 (IMI-psoriasis model, D13, 1 mg/kg, per cage (two animals)): 4.0 | Use Enrichment D13 (IMI-psoriasis model, D13, 3 mg/kg, per cage (two animals)): 4.0 | Use Enrichment D13 (IMI-psoriasis model, D13, 10 mg/kg, per cage (two animals)): 4.0 | Use Enrichment D14 (IMI-psoriasis model, D14, 1 mg/kg, per cage (two animals)): 4.0 | Use Enrichment D14 (IMI-psoriasis model, D14, 3 mg/kg, per cage (two animals)): 4.0 | Use Enrichment D14 (IMI-psoriasis model, D14, 10 mg/kg, per cage (two animals)): 4.0 | Use Enrichment D15 (IMI-psoriasis model, D15, 1 mg/kg, per cage (two animals)): 4.0 | Use Enrichment D15 (IMI-psoriasis model, D15, 3 mg/kg, per cage (two animals)): 4.0 | Use Enrichment D15 (IMI-psoriasis model, D15, 10 mg/kg, per cage (two animals)): 4.0 | Number Licking [1]: 3 (2×) and 5 and 1 and 4 and 2 (2×) and 0 | Number Licking + Scratching [1]: 3 (2×) and 5 (2×) and 8 and 2 (2×) and 0 | Number Scratching [1]: 0 (6×) and 7 and 1 | Number Licking [2]: 3 and 5 and 1 (3×) and 4 (2×) | Number Licking + Scratching [2]: 3 and 5 and 1 (3×) and 4 (2×) | Number Scratching [2]: 0 | Number Licking [3]: 2 (4×) and 7 and 1 and 4 and 5 | Number Licking + Scratching [3]: 3 and 11 and 2 (3×) and 4 (2×) and 5 | Number Scratching [3]: 1 (2×) and 4 and 0 (4×) and 2 | Distance Traveled (IMI-psoriasis model, 1 mg/kg): 18 m and 11 m and 14 m (2×) and 12 m and 16 m (2×) and 4 m | Number Rearings (IMI-psoriasis model, 1 mg/kg): 42 and 52 and 50 and 55 and 35 and 78 and 46 and 4 | Distance Traveled (IMI-psoriasis model, 3 mg/kg): 12 m (3×) and 13 m (2×) and 8 m and 9 m | Number Rearings (IMI-psoriasis model, 3 mg/kg): 41 and 43 and 34 (2×) and 24 and 8 and 47 | Distance Traveled (IMI-psoriasis model, 10 mg/kg): 4 m and 13 m (2×) and 10 m and 8 m and 7 m and 6 m and 11 m | Number Rearings (IMI-psoriasis model, 10 mg/kg): 6 and 39 and 38 and 46 and 11 and 21 and 13 and 55 | Use Enrichment Mean D1-D8 (IMI-psoriasis model, mean D1-D8, 1 mg/kg, per cage (two animals)): 2.50 and 2.75 | Use Enrichment Mean D1-D8 (IMI-psoriasis model, mean D1-D8, 3 mg/kg, per cage (two animals)): 2.50 and 2.00 and 2.25 | Use Enrichment Mean D1-D8 (IMI-psoriasis model, mean D1-D8, 10 mg/kg, per cage (two animals)): 2.50 and 2.75 and 2.00 | Use Enrichment Mean D8-D15 (IMI-psoriasis model, mean D8-D15, 1 mg/kg, per cage (two animals)): 3.00 and 3.36 and 3.14 | Use Enrichment Mean D8-D15 (IMI-psoriasis model, mean D8-D15, 3 mg/kg, per cage (two animals)): 3.00 and 3.14 and 2.86
